Experimental data taken from patent US12281149B2, “Modulators of G-protein coupled receptors” (priority 2021, dated 2025).
*1 amine or outer side, *2 acyl side, *3 side chain or, on linkers, in order; H or OH if unused. Where a SMILES comes first, the peptide text is derived from it. Side-chain parts run from the residue outwards. [ ]: non-standard residue; d: D form. The star is where a group is joined. Isobutyryl(2-(3-CN-5-F-Ph)) = CC(C)(C(=O)*)c1cc(F)cc(C#N)c1; C20 diacid = O=C(O)CCCCCCCCCCCCCCCCCCC(=O)*; X75 = C[C@@](Cc1nn[nH]n1)(N[*:1])C(=O)[*:2]; γGlu = O=C(O)[C@H](CCC(=O)[*:2])N[*:1]; X27 = O=C1CC(C(=O)*)(c2ccccc2)CN1; AEEA = NCCOCCOCC(=O)O; Aib = CC(C)(N)C(=O)O; GABA = NCCCC(=O)O; βAla = NCCC(=O)O

Columns and labels:
Format in all cases: cell-based
GIP receptor [1] = target: T1, GIP receptor (Homo sapiens, UniProt P48546); assay: HitHunter cAMP assay, GIP receptor; settings: for EC50: CHO cells stably expressing GIP receptor, cAMP accumulation, 30 min, read-out: EC50 GIP-1R; for Emax: CHO cells, cAMP, normalized to maximum signal from GIP (high) and DMSO (low), read-out: Emax GIP-1R
T1 sequence (P48546 22-466): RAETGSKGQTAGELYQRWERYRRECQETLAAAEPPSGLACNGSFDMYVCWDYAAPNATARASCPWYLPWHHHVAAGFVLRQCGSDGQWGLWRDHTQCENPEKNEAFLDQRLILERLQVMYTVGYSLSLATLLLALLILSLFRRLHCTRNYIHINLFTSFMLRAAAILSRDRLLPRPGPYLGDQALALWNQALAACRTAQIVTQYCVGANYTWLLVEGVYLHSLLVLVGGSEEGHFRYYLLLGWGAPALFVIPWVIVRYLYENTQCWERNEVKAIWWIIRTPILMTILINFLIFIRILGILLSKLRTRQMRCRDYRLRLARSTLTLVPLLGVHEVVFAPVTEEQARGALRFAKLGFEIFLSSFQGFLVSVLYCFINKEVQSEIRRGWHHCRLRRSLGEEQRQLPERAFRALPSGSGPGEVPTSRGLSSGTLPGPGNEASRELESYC

GIP receptor [2] = target: T1, GIP receptor; assay: PathHunter β-arrestin assay, GIP receptor; set-up: host or cells: PathHunter CHO-K1 GIPR β-Arrestin Cell Line; settings: β-arrestin-2 recruitment, PathHunter CHO-K1 GIPR β-Arrestin Cell Line, 90 min at 37° C.; normalized to GIP; read-out: GIPR β Arrestin EC50
GLP-1 receptor [3] = target: T2, GLP-1 receptor (Homo sapiens, UniProt P43220); assay: HitHunter cAMP assay, GLP-1 receptor; settings: for EC50: CHO cells stably expressing human GLP-1 receptor, cAMP accumulation, 30 min, read-out: EC50 GLP-1R; for Emax: CHO cells, cAMP, normalized to maximum signal from GLP-1 (high) and DMSO (low), read-out: Emax GLP-1R
GLP-1 receptor [4] = target: T2, GLP-1 receptor; assay: PathHunter β-arrestin assay, GLP-1 receptor; set-up: host or cells: PathHunter CHO-K1 GLP1R β-Arrestin Cell Line; settings: β-arrestin-2 recruitment, PathHunter CHO-K1 GLP1R β-Arrestin Cell Line, 90 min at 37° C.; normalized to GLP-1; read-out: GLP-1R β Arrestin EC50

T2 sequence (P43220 24-463): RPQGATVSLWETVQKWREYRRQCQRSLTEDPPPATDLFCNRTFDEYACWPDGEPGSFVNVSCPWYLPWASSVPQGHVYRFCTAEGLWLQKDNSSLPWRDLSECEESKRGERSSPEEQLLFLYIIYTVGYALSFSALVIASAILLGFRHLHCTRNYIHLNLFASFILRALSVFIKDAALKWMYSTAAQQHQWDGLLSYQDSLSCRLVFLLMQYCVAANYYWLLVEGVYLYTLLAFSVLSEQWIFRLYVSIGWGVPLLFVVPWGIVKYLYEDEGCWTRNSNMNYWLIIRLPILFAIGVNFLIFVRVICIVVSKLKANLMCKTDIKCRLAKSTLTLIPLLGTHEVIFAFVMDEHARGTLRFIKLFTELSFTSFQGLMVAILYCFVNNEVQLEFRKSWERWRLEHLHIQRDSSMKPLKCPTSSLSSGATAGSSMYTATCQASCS

CC[C@H](C)[C@H](NC(=O)[C@H](CC(C)C)NC(=O)[C@H](Cc1c[nH]c2ccccc12)NC(=O)[C@H](CCC(N)=O)NC(=O)[C@@H](NC(=O)[C@H](Cc1ccccc1)NC(=O)[C@H](C)NC(=O)[C@H](CCCCNC(=O)COCCOCCNC(=O)COCCOCCNC(=O)CC[C@H](NC(=O)CCCCCCCCCCCCCCCCCCC(=O)O)C(=O)O)NC(=O)[C@H](CCC(N)=O)NC(=O)[C@H](C)NC(=O)[C@@H](NC(=O)[C@H](CCCCN)NC(=O)[C@H](CC(=O)O)NC(=O)[C@H](CC(C)C)NC(=O)C(C)(C)NC(=O)[C@@H](NC(=O)[C@H](CO)NC(=O)[C@H](Cc1ccc(O)cc1)NC(=O)[C@H](CC(=O)O)NC(=O)[C@H](CO)NC(=O)[C@@H](NC(=O)[C@H](Cc1ccccc1)NC(=O)[C@@H](NC(=O)CNC(=O)[C@@H](CC(=O)O)NC(=O)CCCNC(=O)C(C)(C)c1cc(F)cc(C#N)c1)[C@@H](C)O)[C@@H](C)O)[C@@H](C)CC)[C@@H](C)CC)C(C)C)C(=O)N[C@@H](C)C(=O)NCC(=O)NCC(=O)N1CCC[C@H]1C(=O)N[C@@H](CO)C(=O)N[C@@H](CO)C(=O)NCC(=O)N[C@@H](C)C(=O)N1CCC[C@H]1C(=O)N1CCC[C@H]1C(=O)N1CCC[C@H]1C(=O)N[C@@H](CO)C(N)=O [Compound 120] ({Isobutyryl(2-(3-CN-5-F-Ph))-GABA}-[dD]GTFTSDYSI[Aib]LDKIAQK([AEEA-AEEA-γGlu-C20 diacid])AFVQWLIAGGPSSGAPPPS-NH2)
EC50 (GIP receptor [1]): 100 to 1000 nM | Emax (GIP receptor [1]): 40% | EC50 (GIP receptor [2]): > 1000 nM | EC50 (GLP-1 receptor [3]): 10 to 100 nM | Emax (GLP-1 receptor [3]): 104% | EC50 (GLP-1 receptor [4]): > 1000 nM

CC[C@H](C)[C@H](NC(=O)[C@H](CC(C)C)NC(=O)[C@H](Cc1c[nH]c2ccccc12)NC(=O)[C@H](CCC(N)=O)NC(=O)[C@@H](NC(=O)[C@H](Cc1ccccc1)NC(=O)[C@H](C)NC(=O)[C@H](CCCCNC(=O)COCCOCCNC(=O)COCCOCCNC(=O)CC[C@H](NC(=O)CCCCCCCCCCCCCCCCCCC(=O)O)C(=O)O)NC(=O)[C@H](CCC(N)=O)NC(=O)[C@H](C)NC(=O)[C@@H](NC(=O)[C@H](CCCCN)NC(=O)[C@H](CC(=O)O)NC(=O)[C@H](CC(C)C)NC(=O)C(C)(C)NC(=O)[C@@H](NC(=O)[C@H](CO)NC(=O)[C@H](Cc1ccc(O)cc1)NC(=O)[C@H](CC(=O)O)NC(=O)[C@H](CO)NC(=O)[C@@H](NC(=O)[C@H](Cc1ccccc1)NC(=O)[C@@H](NC(=O)CNC(=O)[C@@H](CC(=O)O)NC(=O)CCCNC(=O)C1(c2ccccc2)CNC(=O)C1)[C@@H](C)O)[C@@H](C)O)[C@@H](C)CC)[C@@H](C)CC)C(C)C)C(=O)N[C@@H](C)C(=O)NCC(=O)NCC(=O)N1CCC[C@H]1C(=O)N[C@@H](CO)C(=O)N[C@@H](CO)C(=O)NCC(=O)N[C@@H](C)C(=O)N1CCC[C@H]1C(=O)N1CCC[C@H]1C(=O)N1CCC[C@H]1C(=O)N[C@@H](CO)C(N)=O (stereo partly drawn) [Compound 121] ({X27-GABA}-[dD]GTFTSDYSI[Aib]LDKIAQK([AEEA-AEEA-γGlu-C20 diacid])AFVQWLIAGGPSSGAPPPS-NH2)
EC50 (GIP receptor [1]): > 1000 nM | Emax (GIP receptor [1]): 76% | EC50 (GIP receptor [2]): < 1000 nM | EC50 (GLP-1 receptor [3]): 10 to 100 nM | Emax (GLP-1 receptor [3]): 72% | EC50 (GLP-1 receptor [4]): > 1000 nM

CC[C@H](C)[C@H](NC(=O)[C@H](CC(C)C)NC(=O)[C@H](Cc1c[nH]c2ccccc12)NC(=O)[C@H](CCC(N)=O)NC(=O)[C@@H](NC(=O)[C@H](Cc1ccccc1)NC(=O)[C@H](C)NC(=O)[C@H](CCCCNC(=O)COCCOCCNC(=O)COCCOCCNC(=O)CC[C@H](NC(=O)CCCCCCCCCCCCCCCCCCC(=O)O)C(=O)O)NC(=O)[C@H](CCC(N)=O)NC(=O)[C@H](C)NC(=O)[C@@H](NC(=O)[C@H](CCCCN)NC(=O)[C@H](CC(=O)O)NC(=O)[C@H](CC(C)C)NC(=O)C(C)(C)NC(=O)[C@@H](NC(=O)[C@H](CO)NC(=O)[C@H](Cc1ccc(O)cc1)NC(=O)[C@H](CC(=O)O)NC(=O)[C@H](CO)NC(=O)[C@@H](NC(=O)[C@H](Cc1ccccc1)NC(=O)[C@@H](NC(=O)CNC(=O)[C@@H](CC(=O)O)NC(=O)CCNC(=O)C1(c2ccccc2)CNC(=O)C1)[C@@H](C)O)[C@@H](C)O)[C@@H](C)CC)[C@@H](C)CC)C(C)C)C(=O)N[C@@H](C)C(=O)NCC(=O)NCC(=O)N1CCC[C@H]1C(=O)N[C@@H](CO)C(=O)N[C@@H](CO)C(=O)NCC(=O)N[C@@H](C)C(=O)N1CCC[C@H]1C(=O)N1CCC[C@H]1C(=O)N1CCC[C@H]1C(=O)N[C@@H](CO)C(N)=O (stereo partly drawn) [Compound 122] ({X27-βAla}-[dD]GTFTSDYSI[Aib]LDKIAQK([AEEA-AEEA-γGlu-C20 diacid])AFVQWLIAGGPSSGAPPPS-NH2)
EC50 (GIP receptor [1]): 10 to 100 nM | Emax (GIP receptor [1]): 92% | EC50 (GIP receptor [2]): < 1000 nM | EC50 (GLP-1 receptor [3]): 1 to 10 nM | Emax (GLP-1 receptor [3]): 100% | EC50 (GLP-1 receptor [4]): > 1000 nM

CC[C@H](C)[C@H](NC(=O)[C@H](CC(C)C)NC(=O)[C@H](Cc1c[nH]c2ccccc12)NC(=O)[C@H](CCC(N)=O)NC(=O)[C@@H](NC(=O)[C@H](Cc1ccccc1)NC(=O)[C@H](C)NC(=O)[C@H](CCCCNC(=O)COCCOCCNC(=O)COCCOCCNC(=O)CC[C@H](NC(=O)CCCCCCCCCCCCCCCCCCC(=O)O)C(=O)O)NC(=O)[C@H](CCC(N)=O)NC(=O)[C@H](C)NC(=O)[C@@H](NC(=O)[C@H](CCCCN)NC(=O)[C@H](CC(=O)O)NC(=O)[C@H](CC(C)C)NC(=O)C(C)(C)NC(=O)[C@@H](NC(=O)[C@H](CO)NC(=O)[C@H](Cc1ccc(O)cc1)NC(=O)[C@H](CC(=O)O)NC(=O)[C@H](CO)NC(=O)[C@@H](NC(=O)[C@H](Cc1ccccc1)NC(=O)[C@@H](NC(=O)CNC(=O)[C@](C)(Cc1nn[nH]n1)NC(=O)CCNC(=O)C(C)(C)c1cc(F)cc(C#N)c1)[C@@H](C)O)[C@@H](C)O)[C@@H](C)CC)[C@@H](C)CC)C(C)C)C(=O)N[C@@H](C)C(=O)NCC(=O)NCC(=O)N1CCC[C@H]1C(=O)N[C@@H](CO)C(=O)N[C@@H](CO)C(=O)NCC(=O)N[C@@H](C)C(=O)N1CCC[C@H]1C(=O)N1CCC[C@H]1C(=O)N1CCC[C@H]1C(=O)N[C@@H](CO)C(N)=O [Compound 126] ({Isobutyryl(2-(3-CN-5-F-Ph))-βAla}-[X75]GTFTSDYSI[Aib]LDKIAQK([AEEA-AEEA-γGlu-C20 diacid])AFVQWLIAGGPSSGAPPPS-NH2)
EC50 (GIP receptor [1]): 100 to 1000 nM | Emax (GIP receptor [1]): 97% | EC50 (GIP receptor [2]): > 1000 nM | EC50 (GLP-1 receptor [3]): 100 to 1000 nM | Emax (GLP-1 receptor [3]): 59% | EC50 (GLP-1 receptor [4]): > 1000 nM

CC[C@H](C)[C@H](NC(=O)[C@H](CC(C)C)NC(=O)[C@H](Cc1c[nH]c2ccccc12)NC(=O)[C@H](CCC(N)=O)NC(=O)[C@@H](NC(=O)[C@H](Cc1ccccc1)NC(=O)[C@H](C)NC(=O)[C@H](CCCCNC(=O)COCCOCCNC(=O)COCCOCCNC(=O)CC[C@H](NC(=O)CCCCCCCCCCCCCCCCCCC(=O)O)C(=O)O)NC(=O)[C@H](CCC(N)=O)NC(=O)[C@H](C)NC(=O)[C@@H](NC(=O)[C@H](CCCCN)NC(=O)[C@H](CC(=O)O)NC(=O)[C@H](CC(C)C)NC(=O)C(C)(C)NC(=O)[C@@H](NC(=O)[C@H](CO)NC(=O)[C@H](Cc1ccc(O)cc1)NC(=O)[C@H](CC(=O)O)NC(=O)[C@H](CO)NC(=O)[C@@H](NC(=O)[C@H](Cc1ccccc1)NC(=O)[C@@H](NC(=O)CNC(=O)[C@@H](CC(=O)O)NC(=O)CCNC(=O)C(C)(C)c1cc(F)cc(C#N)c1)[C@@H](C)O)[C@@H](C)O)[C@@H](C)CC)[C@@H](C)CC)C(C)C)C(=O)N[C@@H](C)C(=O)NCC(=O)NCC(=O)N1CCC[C@H]1C(=O)N[C@@H](CO)C(=O)N[C@@H](CO)C(=O)NCC(=O)N[C@@H](C)C(=O)N1CCC[C@H]1C(=O)N1CCC[C@H]1C(=O)N1CCC[C@H]1C(=O)N[C@@H](CO)C(N)=O [Compound 127] ({Isobutyryl(2-(3-CN-5-F-Ph))-βAla}-[dD]GTFTSDYSI[Aib]LDKIAQK([AEEA-AEEA-γGlu-C20 diacid])AFVQWLIAGGPSSGAPPPS-NH2)
EC50 (GIP receptor [1]): 100 to 1000 nM | Emax (GIP receptor [1]): 82% | EC50 (GIP receptor [2]): > 1000 nM | EC50 (GLP-1 receptor [3]): 1 to 10 nM | Emax (GLP-1 receptor [3]): 93% | EC50 (GLP-1 receptor [4]): > 1000 nM
